Results as given in the OligoGym collection.
Several values for one entry are separate records, joined by “and”; a condition that tells them apart may be missing. Equal values may be shown once. After the bases stand the sugars from the 5' end (letter, count) and the backbone: PS all phosphorothioate, else s phosphorothioate and o phosphodiester by linkage. Methylation of C is not given here. l = locked nucleic acid (LNA); d = 2'-deoxy (DNA)

How the values were obtained:
MYH7 = settings: ASO, CC-2580, 5 µM
ANGPTL2 = settings: ASO

Sequence	target mRNA inhibition (MYH7)	target mRNA inhibition (ANGPTL2; 5 µM) [%]	target mRNA inhibition (ANGPTL2; 25 µM) [%]
CAGCTTGGCGATGATCT (sugars l1 d2 l1 d11 l2, PS)	27% and 2%		
CAGCTTGGCGATGATCT (sugars l2 d9 l1 d3 l2, PS)	60% and 37%		
CAGCTTGGCGATGATCT (sugars l3 d2 l1 d9 l2, PS)	75% and 59%		
CAGCTTGGCGATGATCT (sugars ldddddddddlldldll, PS)	47% and 30%		
CAGCTTGGCGATGATCT (sugars lddlddddddddldlll, PS)	48% and 26%		
CAGCTTGGCGATGATCT (sugars lddldddddddlddlll, PS)	3% and -1%		
CAGCTTGGCGATGATCT (sugars lddldddddddllddll, PS)	-2% and -12%		
CAGCTTGGCGATGATCT (sugars lddlddddddlddllll, PS)	29% and 23%		
CAGCTTGGCGATGATCT (sugars lddlddddddldlddll, PS)	11% and 15%		
CAGCTTGGCGATGATCT (sugars lddlddddddllddlll, PS)	16% and 14%		
CAGCTTGGCGATGATCT (sugars lddlddddddlldldll, PS)	18% and 5%		
CAGCTTGGCGATGATCT (sugars lddlddddlddddddll, PS)	34% and 17%		
CAGCTTGGCGATGATCT (sugars lddlddddlldddddll, PS)	0% and -24%		
CAGCTTGGCGATGATCT (sugars lddldldddddldddll, PS)	22% and 7%		
CAGCTTGGCGATGATCT (sugars lddldldddddldldll, PS)	-1% and -24%		
CAGCTTGGCGATGATCT (sugars lddlldddddddlldll, PS)	38% and 22%		
CAGCTTGGCGATGATCT (sugars lddlldddddlldldll, PS)	22% and 14%		
CAGCTTGGCGATGATCT (sugars lddlldddlldddddll, PS)	36% and 19%		
CAGCTTGGCGATGATCT (sugars lddllddlddddddlll, PS)	15% and -9%		
CAGCTTGGCGATGATCT (sugars ldldldddddddlddll, PS)	21% and 3%		
CAGCTTGGCGATGATCT (sugars ldldldldlddddddll, PS)	-17% and -15%		
CAGCTTGGCGATGATCT (sugars ldldllddddddlddll, PS)	31% and 17%		

Sequence	target mRNA inhibition (MYH7)	target mRNA inhibition (ANGPTL2; 5 µM) [%]	target mRNA inhibition (ANGPTL2; 25 µM) [%]
CAGCTTGGCGATGATCT (sugars ldlldddddddldddll, PS)	38% and 20%		
CAGCTTGGCGATGATCT (sugars llddddddddlddldll, PS)	37% and 33%		
CAGCTTGGCGATGATCT (sugars lldddddddllddldll, PS)	17% and 3%		
CAGCTTGGCGATGATCT (sugars lldddddldddldldll, PS)	20% and 15%		
CAGCTTGGCGATGATCT (sugars lldlddddddlldddll, PS)	24% and 13%		
CAGCTTGGCGATGATCT (sugars lldllddddddldddll, PS)	45% and 31%		
CAGCTTGGCGATGATCT (sugars lllddlddddddlddll, PS)	25% and 0%		
CTAGGCACTCAATCCCA (sugars l1 d14 l2, PS)		21.9	31.5
CTGGTTGATGATGCGGTTG (sugars l1 d16 l2, PS)		52.7	60.5
CTTGGCAATGATCTCATCC (sugars l2 d1 l1 d11 l4, PS)	81% and 60%		
CTTGGCAATGATCTCATCC (sugars l2 d10 l2 d2 l3, PS)	74% and 49%		
CTTGGCAATGATCTCATCC (sugars l3 d13 l3, PS)	71% and 46%		
CTTGGCAATGATCTCATCC (sugars lddddddddlddddlldll, PS)	45% and 31%		
CTTGGCAATGATCTCATCC (sugars ldddddddlddldldldll, PS)	37% and 12%		
CTTGGCAATGATCTCATCC (sugars ldddddddldlldldldll, PS)	-7% and -17%		
GAAATGTTATCTAATACT (sugars l4 d10 l4, PS)		34.5	49
GAACTCAGCCCAGTAGAC (sugars l1 d15 l2, PS)		-4.7	17.5
GAATTTTCTTTACCTTAG (sugars l4 d11 l3, PS)		41.4	56
GAGTTTGGATCATAGAA (sugars l4 d10 l3, PS)		41.2	65.8
GATGATGCGGTTGTAGG (sugars l2 d13 l2, PS)		67	78
GATGATGCGGTTGTAGGT (sugars l1 d15 l2, PS)		62.4	73
GCAGCTCATTGTTGAGCA (sugars l1 d15 l2, PS)		-2.7	-0.5

Sequence	target mRNA inhibition (MYH7)	target mRNA inhibition (ANGPTL2; 5 µM) [%]	target mRNA inhibition (ANGPTL2; 25 µM) [%]
GCATTCCTCAGACAAATC (sugars l2 d14 l2, PS)		43.6	56.9
GCTTGCGGATGATCTC (sugars l2 d12 l2, PS)		38	70.9
GTAGGTAGGCGAGGAG (sugars l2 d12 l2, PS)		16.3	-18.7
GTGCCAAATCCTAGACA (sugars l2 d13 l2, PS)		54.5	68.2
GTGCTCTGTGAAGATTA (sugars l2 d11 l4, PS)		66.6	81.3
GTTCTCCAGGGAAGTGTA (sugars l1 d15 l2, PS)		47.4	57.7
GTTTCTGACAAAGCCCG (sugars l1 d13 l3, PS)		79.6	84.3
TAGCAGATGGGGCACAA (sugars l1 d12 l4, PS)		22.9	12.4
TCAGTGGTGAGATGGGTCAC (sugars l1 d17 l2, PS)		29.1	40.7
TCTCCTAAGAGCAAAGCT (sugars l2 d14 l2, PS)		37.2	52.9
TGAATGGAAGATACAAAACT (sugars l4 d12 l4, PS)		11.6	44.7
TGATGATGCGGTTGTA (sugars l3 d11 l2, PS)		73.8	85.9
TGATGATGCGGTTGTAGGT (sugars l1 d16 l2, PS)		45.5	63.9
TGATGTGGTGAGACAGTA (sugars l2 d14 l2, PS)		53.6	70.5
TGGTTGATGATGCGGTT (sugars l2 d13 l2, PS)		81.7	87.5
TTACATGCCGCCAGAGGAA (sugars l1 d16 l2, PS)		45.6	52.3
TTATAAAGACAAGAGCCT (sugars l3 d12 l3, PS)		34.5	47.3
TTATAGGGTGGAATAAA (sugars l4 d9 l4, PS)		18.2	26.9
TTCTCCTAGAAAGCAGT (sugars l1 d12 l4, PS)		43	61.9
TTCTGGTAGTGGGCACAG (sugars l1 d15 l2, PS)		36.8	37.1
TTGATGATGCGGTTGTAGG (sugars l1 d16 l2, PS)		44.8	55.9
